Measured values from US8765972B2 (priority 2009, dated 2014).
pIC50, pKd: −log10 of the molar value. Like-named read-outs stand apart in the source and are kept apart here.

Columns and labels:
PARP-1 [1] = biological target: T1, PARP-1 (Homo sapiens (Human), UniProt P09874); settings: for DC50: read-out: PARP-1 (DC50); for pKd: read-out: PARP-1 (Kd)
Procedure: (§1) Affinity evaluation of the tested compounds and their selectivity with respect to the different PARP isoforms of interest was assessed in a displacement assay.
(§2) The polarization signal can be measured, e.g., by a plate reader such as the Saphire2 (Tecan). The displacement ability of the test compound is in correlation with the compound affinity for the NAD pocket of the enzyme.
(§3) In all of the experiments, the polarization signal was measured using a Saphire2 plate reader (Tecan). Data analysis was performed using Dynafit software. In particular, titration data were fitted to the following equilibria: Enzyme+probe<==>Complex Enzyme-probe, while displacement data were fitted to the following equilibria: Enzyme+probe<==>Complex Enzyme-probe, Enzyme+Compound<==>Complex Enzyme-Compound, whereby binding of probe and compound on the enzyme are mutually exclusive (pure competitive mechanism). Displacement data were also fitted using Excell spreadsheet (Microsoft Inc. Seattle, USA) to a four parameter logistic model (4PL), or Hill-Slope model to calculate DC50s where the DC50 value represents the compound concentration at which the polarization signal is diminished by 50% compared to untreated controls.
(§4) In agreement, affinity binding constants (KD) were determined by fitting with a pure competitive mechanism. KD values, are the average of three independent experiments.

PARP-3 = PARP-3 (Homo sapiens (Human), UniProt Q9Y6F1); settings: read-out: PARP-3 (DC50); probe compound P1
Procedure: as §1, §2, §3, §4

[2] = tested on: PAR formation in HeLa cells; assay: cells; settings: Homo sapiens, read-out: PAR assay (IC50)
Procedure: Cellular PAR levels were measured by immunocytochemistry, and quantified using an ArrayScan vTi instrument (Cellomics Thermo Scientific). […] Test compounds were then added at the required concentration for 30'. […] After 3 washes in PBS, wells incubated in PBS (w/v) 5% FBS 0.05% Tween20 containing 2 μg/mL Cy2-conjugated Goat anti mouse secondary antibody (Amersham Pharmacia Biotech cat. […] At least 10 fields, corresponding to at least 900 cells, were read for each well. […] X is the logarithm of concentration. IC50 is the response; IC50 starts at Bottom and goes to Top with a sigmoid shape.

PARP-2 = PARP-2 (Homo sapiens (Human), UniProt Q9UGN5); settings: read-out: PARP-2 (DC50); probe compound P1
Sequence of PARP-2 (Q9UGN5 whole entry): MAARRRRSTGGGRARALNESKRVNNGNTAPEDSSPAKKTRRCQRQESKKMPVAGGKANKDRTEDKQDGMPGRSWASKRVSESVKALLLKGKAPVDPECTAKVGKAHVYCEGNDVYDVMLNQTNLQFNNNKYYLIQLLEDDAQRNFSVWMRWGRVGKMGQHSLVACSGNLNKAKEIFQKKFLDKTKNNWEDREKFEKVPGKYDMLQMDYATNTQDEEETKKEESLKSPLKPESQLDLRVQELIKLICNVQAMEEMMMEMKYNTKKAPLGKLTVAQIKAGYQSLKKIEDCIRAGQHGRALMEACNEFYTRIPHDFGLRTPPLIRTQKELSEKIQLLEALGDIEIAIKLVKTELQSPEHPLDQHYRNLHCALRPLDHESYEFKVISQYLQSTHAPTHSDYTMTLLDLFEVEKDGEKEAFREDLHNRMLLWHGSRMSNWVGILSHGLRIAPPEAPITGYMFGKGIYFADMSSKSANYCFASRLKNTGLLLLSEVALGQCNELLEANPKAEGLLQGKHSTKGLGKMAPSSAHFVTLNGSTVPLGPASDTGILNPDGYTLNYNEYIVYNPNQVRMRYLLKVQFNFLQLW
Procedure: as §1, §2, §3, §4

[3] = tested on: ovarian cancer patients with confirmed BRCA-1 mutations; settings: phase I, monotherapy, preliminary data; cited from earlier work
in vivo = settings: male, Balb, Nu/Nu, mouse, 10 mg/kg; for Vd / clearance: iv; for AUC(0-t) / half-life: po
Procedure: (§5) The compounds were formulated in 10% tween 80/dextrose for intravenous bolus administration while oral administrations were performed using the compounds formulated in 0.5% methylcellulose. […] Plasma samples were prepared by plasma proteins precipitation adding 200 μL of methanol to 10 μL of plasma in a 96 well plate. […] The supernatant was considered as final extract and injected onto the LC-MS-MS system (HPLC system: Hewlett Packard 1100 series using Atlantis HILIC Silica 50*2.1 mm 5.0 μm analytical column; MS instrument: Perkin Elmer SCIEX API 2000 and ionization performed with Turbo Ion Spray in positive ion mode). Lower limit of quantification is 5.0 ng/mL, upper limit of quantification is 10000 ng/mL. Analysis was performed using the Watson package (version 6.4.0.04) and Excel spreadsheet (Microsoft Inc. Seattle, USA). Non-compartmental method (linear trapezoidal rule and linear regression analysis of natural log-transformed plasma concentrations vs. time data) was used. After intravenous dosing, Co was set equal to Co 083 Absolute bioavailability (F) was calculated from the ratio of average oral to IV (intravenous) dose-normalized plasma AUC (area under curve) values.

[4] = male, Balb, athymic Nu/Nu, mouse, in vivo, po
Source text: (§6) Balb, athymic Nu/Nu male mice, from Harlan (Italy), were maintained in agreement with the European Communities Council Directive no. 86/609/EEC concerning the protection of animals used for experimental or other scientific purposes, in cages with paper filter cover, food and bedding sterilized and acidified water. Fragments of Capan-1 human pancreatic cancer tumors were implanted subcutaneously. […] Each group included seven animals. The treatment started one day after randomization. Compound of formula (I) was administered by oral route as a methocel suspension at the indicated doses and times. Tumor dimension was measured regularly by calipers during the experiments and tumor mass was calculated as described in Simeoni M. et al., Cancer Res 64, 1094-1101 (2004).

[5] = tested on: Capan-1 human pancreatic cancer tumors; assay: In vivo efficacy, Capan-1 BRCA-2 mutated mouse model, single agent; set-up: species or system Balb, athymic Nu/Nu male mice; settings: oral
Source text: as §6

PARP-1 [6] = biological target: T1, PARP-1; assay: biochemical; settings: PARP-1 (Kd)
Procedure: as §1, §2, §3, §4

[7] = male, Balb, Nu/Nu, mouse, in vivo, 10 mg/kg
Procedure: as §5

T1 sequence (P09874 whole entry): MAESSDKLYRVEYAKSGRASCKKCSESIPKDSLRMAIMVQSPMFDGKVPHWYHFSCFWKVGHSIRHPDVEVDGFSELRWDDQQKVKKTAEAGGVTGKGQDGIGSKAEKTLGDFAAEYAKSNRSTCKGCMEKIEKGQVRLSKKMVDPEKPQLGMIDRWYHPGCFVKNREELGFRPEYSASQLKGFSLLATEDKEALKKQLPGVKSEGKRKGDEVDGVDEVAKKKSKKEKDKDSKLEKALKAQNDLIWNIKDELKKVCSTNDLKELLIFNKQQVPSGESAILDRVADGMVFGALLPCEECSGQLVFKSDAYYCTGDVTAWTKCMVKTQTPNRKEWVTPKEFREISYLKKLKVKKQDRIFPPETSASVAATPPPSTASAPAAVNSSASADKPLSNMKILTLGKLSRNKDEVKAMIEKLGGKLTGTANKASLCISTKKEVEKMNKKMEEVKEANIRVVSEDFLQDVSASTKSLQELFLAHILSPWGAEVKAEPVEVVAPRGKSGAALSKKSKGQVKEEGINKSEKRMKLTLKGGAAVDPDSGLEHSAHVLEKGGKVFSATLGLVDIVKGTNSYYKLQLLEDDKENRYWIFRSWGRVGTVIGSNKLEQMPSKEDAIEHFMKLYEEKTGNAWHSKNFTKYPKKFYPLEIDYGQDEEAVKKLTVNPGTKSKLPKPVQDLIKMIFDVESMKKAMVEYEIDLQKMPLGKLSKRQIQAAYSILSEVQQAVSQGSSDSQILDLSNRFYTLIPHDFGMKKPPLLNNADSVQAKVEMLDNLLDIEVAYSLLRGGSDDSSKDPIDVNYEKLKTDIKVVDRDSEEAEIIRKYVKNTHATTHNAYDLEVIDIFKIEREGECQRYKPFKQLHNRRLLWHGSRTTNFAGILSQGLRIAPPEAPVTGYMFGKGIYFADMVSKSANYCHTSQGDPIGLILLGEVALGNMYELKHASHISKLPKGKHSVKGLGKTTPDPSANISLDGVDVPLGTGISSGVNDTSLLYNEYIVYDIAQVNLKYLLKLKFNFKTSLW
Sequence of PARP-3 (Q9Y6F1 whole entry): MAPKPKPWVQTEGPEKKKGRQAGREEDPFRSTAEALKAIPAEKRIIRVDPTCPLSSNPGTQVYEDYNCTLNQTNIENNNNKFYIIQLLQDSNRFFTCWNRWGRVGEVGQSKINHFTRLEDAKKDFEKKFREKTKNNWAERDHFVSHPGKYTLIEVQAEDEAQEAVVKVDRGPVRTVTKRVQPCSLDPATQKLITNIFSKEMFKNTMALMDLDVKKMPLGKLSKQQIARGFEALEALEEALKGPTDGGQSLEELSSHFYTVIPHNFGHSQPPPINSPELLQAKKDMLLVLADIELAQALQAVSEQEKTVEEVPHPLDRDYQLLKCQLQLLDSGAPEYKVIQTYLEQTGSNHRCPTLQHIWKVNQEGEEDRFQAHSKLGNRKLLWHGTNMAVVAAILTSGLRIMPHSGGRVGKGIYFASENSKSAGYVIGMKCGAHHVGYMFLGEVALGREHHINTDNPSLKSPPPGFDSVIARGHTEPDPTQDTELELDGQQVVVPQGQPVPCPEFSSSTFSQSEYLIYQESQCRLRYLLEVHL

With `CC1c2cccc(C(N)=O)c2C(=O)N1C1CCN(C2CCC(F)(F)CC2)CC1` (stereo not drawn) [Compound 6, 2-[1-(4,4-Difluorocyclohexyl)piperidin-4-yl]-1-methyl-3-oxo-2,3-dihydro-1H-isoindole-4-carboxamide] the DC50 (PARP-1 [1]; probe compound P1) was under 0.25 µM, the pKd (PARP-1 [1]; probe compound P3) was 7.52 and the DC50 (PARP-3) was over 10 µM. It also gave a pIC50 [2] of 5.89 and a DC50 (PARP-2) of over 10 µM.
For `O=C(c1cc(Cc2n[nH]c(=O)c3ccccc23)ccc1F)N1CCN(C(=O)C2CC2)CC1` [AZD2281], the partial responses [3] is given as 4 out of 10.
For `CC1(C)c2cc(F)cc(C(N)=O)c2C(=O)N1C1CCN(C2CCCCC2)CC1` [Compound 128, 2-(1-Cyclohexylpiperidin-4-yl)-6-fluoro-1,1-dimethyl-3-oxo-2,3-dihydro-1H-isoindole-4-carboxamide], the DC50 (PARP-1 [1]; probe compound P1) was 5.66 µM, the pKd (PARP-1 [1]; probe compound P3) was 6.06 and the DC50 (PARP-3) was over 10 µM. The pIC50 [2] was 5.40 and the DC50 (PARP-2) was over 10 µM.
`CC1c2cccc(C(N)=O)c2C(=O)N1C1CCN(Cc2ccc3[nH]ccc3c2)CC1` (stereo not drawn) [Compound 7, 2-[1-(1H-indol-5-ylmethyl)piperidin-4-yl]-1-methyl-3-oxo-2,3-dihydro-1H-isoindole-4-carboxamide] showed a DC50 (PARP-1 [1]; probe compound P1) of under 0.25 µM, a pKd (PARP-1 [1]; probe compound P3) of 7.52 and a DC50 (PARP-3) of 0.52 µM. The pIC50 [2] was 5.15 and the DC50 (PARP-2) was over 10 µM.
With `C[C@@H]1c2cccc(C(N)=O)c2C(=O)N1C1CCN(C2CCCCC2)CC1` [Compound 5, (1R)-2-(1-Cyclohexylpiperidin-4-yl)-1-methyl-3-oxo-2,3-dihydro-1H-isoindole-4-carboxamide] the DC50 (PARP-1 [1]) was 2.11 µM, the pKd (PARP-1 [1]) was 6.11 and the DC50 (PARP-3) was over 10 µM. It also gave a pIC50 [2] of 5.20 and a DC50 (PARP-2) of over 10 µM.
`CC1c2cccc(C(N)=O)c2C(=O)N1C1CCN(C2CCCCC2)CC1` (racemic) [Compound 3, 2-(1-Cyclohexylpiperidin-4-yl)-1-methyl-3-oxo-2,3-dihydro-1H-isoindole-4-carboxamide] showed a Vd (in vivo) of 3.61 L/kg, a clearance (in vivo) of 1.96 L/h/kg and an AUC(0-t) (in vivo) of 13.5 µM·h. The half-life (in vivo) was 3.04 h, the “Toxicity (body weight reduction, mice affected out of 7 treated)” value ([4]; 100 mg/kg) was 0/7 and the DC50 (PARP-1 [1]) was under 0.25 µM. The “Max TGI (%)” value ([5]; 100 mg/kg, schedule 1-10 daily) was 51%, the DC50 (PARP-3) was over 10 µM and the pIC50 [2] was 6.55. For the same compound, the pKd (PARP-1 [6]) was over 8.00, the “C-max (oral)” value [7] was 2.53 µM and the DC50 (PARP-2) was over 10 µM.
Work on `C[C@H]1c2cccc(C(N)=O)c2C(=O)N1C1CCN(C2CCCCC2)CC1` [Compound 4, (1S)-2-(1-Cyclohexylpiperidin-4-yl)-1-methyl-3-oxo-2,3-dihydro-1H-isoindole-4-carboxamide] yielded a Vd (in vivo) of 6.8 L/kg, a clearance (in vivo) of 3.2 L/h/kg and an AUC(0-t) (in vivo) of 4.93 µM·h. The half-life (in vivo) was 2.62 h, the “Toxicity (body weight reduction, mice affected out of 7 treated)” value ([4]; 75 mg/kg) was 0/7 and the DC50 (PARP-1 [1]) was under 0.25 µM. For the same compound, the “Max TGI (%)” value ([5]; 75 mg/kg, schedule 1-10 daily) was 52%, the DC50 (PARP-3) was over 10 µM and the pIC50 [2] was 6.82. For the same compound, the pKd (PARP-1 [6]) was over 8.00, the “C-max (oral)” value [7] was 1.37 µM and the DC50 (PARP-2) was over 10 µM.
Work on `CC1c2cccc(C(N)=O)c2C(=O)N1C1CCN(Cc2cn(C(C)C)c3ccccc23)CC1` (stereo not drawn) [Compound 8, 1-Methyl-3-oxo-2-(1-{[1-(propan-2-yl)-1H-indol-3-yl]methyl}piperidin-4-yl)-2,3-dihydro-1H-isoindole-4-carboxamide] yielded a DC50 (PARP-1 [1]; probe compound P1) of 0.44 µM, a pKd (PARP-1 [1]; probe compound P3) of 6.60 and a DC50 (PARP-3) of 3.1 µM. For the same compound, the DC50 (PARP-2) was over 10 µM.
With `CC1c2cccc(C(N)=O)c2C(=O)N1C1CCN(C2CCCC2)CC1` (stereo not drawn) [Compound 13, 2-(1-Cyclopentylpiperidin-4-yl)-1-methyl-3-oxo-2,3-dihydro-1H-isoindole-4-carboxamide] the Vd (in vivo) was 4.7 L/kg, the clearance (in vivo) was 1.6 L/h/kg and the AUC(0-t) (in vivo) was 18.3 µM·h. The half-life (in vivo) was 2.9 h, the “Toxicity (body weight reduction, mice affected out of 7 treated)” value ([4]; 100 mg/kg) was 0/7 and the DC50 (PARP-1 [1]; probe compound P1) was under 0.25 µM. For the same compound, the pKd (PARP-1 [1]; probe compound P3) was 7.30, the “Max TGI (%)” value ([5]; 100 mg/kg, schedule 1-20 daily) was 18% and the DC50 (PARP-3) was over 10 µM. For the same compound, the pIC50 [2] was 6.30, the “C-max (oral)” value [7] was 3.64 µM and the DC50 (PARP-2) was 1.46 µM.
With `CC1c2cccc(C(N)=O)c2C(=O)N1C1CCN(CC2CCCCC2)CC1` (stereo not drawn) [Compound 21, 2-[1-(Cyclohexylmethyl)piperidin-4-yl]-1-methyl-3-oxo-2,3-dihydro-1H-isoindole-4-carboxamide] the Vd (in vivo) was 4.9 L/kg, the clearance (in vivo) was 1.38 L/h/kg and the AUC(0-t) (in vivo) was 7.39 µM·h. The half-life (in vivo) was 6.6 h, the “Toxicity (body weight reduction, mice affected out of 7 treated)” value ([4]; 100 mg/kg) was 0/7 and the “Max TGI (%)” value ([5]; 100 mg/kg, schedule 1-20 daily) was 23%. The DC50 (PARP-3) was over 10 µM, the pIC50 [2] was 5.92 and the “C-max (oral)” value [7] was 1.2 µM. It also gave a DC50 (PARP-2) of over 10 µM.
Work on `CC1c2cccc(C(N)=O)c2C(=O)N1c1ccc(N2CCOCC2)cc1` (stereo not drawn) [Compound 35, 1-Methyl-2-[4-(morpholin-4-yl)phenyl]-3-oxo-2,3-dihydro-1H-isoindole-4-carboxamide] yielded a DC50 (PARP-1 [1]; probe compound P1) of under 0.25 µM, a pKd (PARP-1 [1]; probe compound P3) of 7.40 and a DC50 (PARP-3) of over 10 µM. It also gave a pIC50 [2] of 5.31 and a DC50 (PARP-2) of over 10 µM.
`CC1c2cccc(C(N)=O)c2C(=O)N1C1CCN(Cc2ccc[nH]2)CC1` (stereo not drawn) [Compound 19, 1-Methyl-3-oxo-2-[1-(1H-pyrrol-2-ylmethyl)piperidin-4-yl]-2,3-dihydro-1H-isoindole-4-carboxamide] gave a Vd (in vivo) of 3.9 L/kg, a clearance (in vivo) of 5.28 L/h/kg and an AUC(0-t) (in vivo) of 4.28 µM·h. For the same compound, the half-life (in vivo) was 0.8 h, the DC50 (PARP-1 [1]; probe compound P1) was under 0.25 µM and the pKd (PARP-1 [1]; probe compound P3) was 7.70. For the same compound, the DC50 (PARP-3) was 3.04 µM, the pIC50 [2] was 5.60 and the “C-max (oral)” value [7] was 2.85 µM. It also gave a DC50 (PARP-2) of over 10 µM.
With `CC1c2cccc(C(N)=O)c2C(=O)N1C1CCN(CC2CC=CCC2)CC1` (stereo not drawn) [Compound 22, 2-[1-(Cyclohex-3-en-1-ylmethyl)piperidin-4-yl]-1-methyl-3-oxo-2,3-dihydro-1H-isoindole-4-carboxamide] the DC50 (PARP-1 [1]; probe compound P1) was under 0.25 µM, the pKd (PARP-1 [1]; probe compound P3) was 7.40 and the DC50 (PARP-3) was over 10 µM. It also gave a DC50 (PARP-2) of over 10 µM.
`CC1c2cccc(C(N)=O)c2C(=O)N1C1CCN(Cc2cccs2)CC1` (stereo not drawn) [Compound 20, 1-Methyl-3-oxo-2-[1-(thiophen-2-ylmethyl)piperidin-4-yl]-2,3-dihydro-1H-isoindole-4-carboxamide] gave a DC50 (PARP-1 [1]; probe compound P1) of under 0.25 µM, a DC50 (PARP-3) of 3.86 µM and a pKd (PARP-1 [6]; probe compound P3) of over 8.00. For the same compound, the DC50 (PARP-2) was over 10 µM.
Compound `CC1c2cccc(C(N)=O)c2C(=O)N1C1CCN(C2CCC2)CC1` (stereo not drawn) [Compound 18, 2-(1-Cyclobutylpiperidin-4-yl)-1-methyl-3-oxo-2,3-dihydro-1H-isoindole-4-carboxamide] has a Vd (in vivo) of 3.84 L/kg, a clearance (in vivo) of 2.82 L/h/kg and an AUC(0-t) (in vivo) of 7.28 µM·h. The half-life (in vivo) was 1.8 h, the DC50 (PARP-1 [1]; probe compound P1) was under 0.25 µM and the DC50 (PARP-3) was over 10 µM. The pIC50 [2] was 5.57, the pKd (PARP-1 [6]; probe compound P3) was over 8.00 and the “C-max (oral)” value [7] was 3.9 µM. For the same compound, the DC50 (PARP-2) was 1.82 µM.
In the case of `CC1c2cccc(C(N)=O)c2C(=O)N1C1CCN(Cc2ncc[nH]2)CC1` (stereo not drawn) [Compound 26, 2-[1-(1H-Imidazol-2-ylmethyl)piperidin-4-yl]-1-methyl-3-oxo-2,3-dihydro-1H-isoindole-4-carboxamide], the DC50 (PARP-1 [1]; probe compound P1) was under 0.25 µM, the pKd (PARP-1 [1]; probe compound P3) was 7.15 and the DC50 (PARP-3) was 2.83 µM. It also gave a DC50 (PARP-2) of 6.88 µM.
With `CC1c2cc(F)cc(C(N)=O)c2C(=O)N1C1CCN(C2CCCCC2)CC1` (stereo not drawn) [Compound 127, 2-(1-Cyclohexylpiperidin-4-yl)-6-fluoro-1-methyl-3-oxo-2,3-dihydro-1H-isoindole-4-carboxamide] the DC50 (PARP-1 [1]; probe compound P1) was 0.41 µM, the pKd (PARP-1 [1]; probe compound P3) was 7.22 and the DC50 (PARP-3) was over 10 µM. It also gave a pIC50 [2] of 6.19 and a DC50 (PARP-2) of over 10 µM.
`CC1c2cccc(C(N)=O)c2C(=O)N1C1CCN(Cc2ccco2)CC1` (stereo not drawn) [Compound 15, 2-[1-(Furan-2-ylmethyl)piperidin-4-yl]-1-methyl-3-oxo-2,3-dihydro-1H-isoindole-4-carboxamide] gave a DC50 (PARP-1 [1]; probe compound P1) of under 0.25 µM, a pKd (PARP-1 [1]; probe compound P3) of 7.40 and a DC50 (PARP-3) of over 10 µM. It also gave a DC50 (PARP-2) of over 10 µM.
`CC1c2cccc(C(N)=O)c2C(=O)N1c1ccc(N2CCCCC2)cc1` (stereo not drawn) [Compound 36, 1-Methyl-3-oxo-2-[4-(piperidin-1-yl)phenyl]-2,3-dihydro-1H-isoindole-4-carboxamide] showed a DC50 (PARP-1 [1]; probe compound P1) of under 0.25 µM, a pKd (PARP-1 [1]; probe compound P3) of 7.10 and a DC50 (PARP-3) of over 10 µM. For the same compound, the pIC50 [2] was 5.05 and the DC50 (PARP-2) was over 10 µM.
`CC1c2cccc(C(N)=O)c2C(=O)N1c1ccc(CN2CCCCC2)cc1` (stereo not drawn) [Compound 38, 1-Methyl-3-oxo-2-[4-(piperidin-1-ylmethyl)phenyl]-2,3-dihydro-1H-isoindole-4-carboxamide] showed a DC50 (PARP-1 [1]; probe compound P1) of 1.11 µM, a DC50 (PARP-3) of over 10 µM and a pIC50 [2] of 5.28. For the same compound, the DC50 (PARP-2) was over 10 µM.
`CC1c2cccc(C(N)=O)c2C(=O)N1C1CCN(Cc2ccccn2)CC1` (stereo not drawn) [Compound 9, 1-Methyl-3-oxo-2-[1-(pyridin-2-ylmethyl)piperidin-4-yl]-2,3-dihydro-1H-isoindole-4-carboxamide] gave a DC50 (PARP-1 [1]; probe compound P1) of 0.35 µM, a pKd (PARP-1 [1]; probe compound P3) of 6.77 and a DC50 (PARP-3) of over 10 µM. It also gave a pIC50 [2] of 5.52 and a DC50 (PARP-2) of over 10 µM.
Compound `CC1c2cc(F)cc(C(N)=O)c2C(=O)N1C1CCN(C2CCC(F)(F)CC2)CC1` (stereo not drawn) [Compound 126, 2-[1-(4,4-Difluorocyclohexyl)piperidin-4-yl]-6-fluoro-1-methyl-3-oxo-2,3-dihydro-1H-isoindole-4-carboxamide] has a DC50 (PARP-1 [1]; probe compound P1) of under 0.25 µM, a DC50 (PARP-3) of over 10 µM and a pIC50 [2] of 6.57. It also gave a DC50 (PARP-2) of over 10 µM.
